Ten molecules from US8394829B2, “Bi-functional quinoline analogs” (Gilead Sciences, Inc., priority 2010, dated 2013) can be followed below.

Bounds are passed on as bounds.

For orientation: IC50 means the concentration that inhibits the measured activity by half. As usually defined, the EC50 is the concentration giving half of the maximal effect.

Assay [1] deals with T1, human recombinant beta-2 adrenoreceptors (Homo sapiens, UniProt P07550).
T1 construct: expressed in transfected cells; host or cells: CHO cells
The assay can be described thus: Beta-2 adrenoceptor binding assay ([3H](−)CGP-12177 displacement). The following applies: CHO cells expressing human beta-2 adrenoreceptors, [3H](−)CGP-12177 0.3 nM, 120 min. The method, then: Beta-2 Adrenoceptor Binding Assay
Test compounds were incubated for 120 min with Chinese hamster oocyte (CHO) cells expressing the human recombinant beta-2 adrenoreceptors. Binding of test compounds to the beta-2 adrenoreceptors was determined by measuring the displacement of the radiolabeled ligand [^3H](−)CGP-12177 (0.3 nM) from the receptor measured by a scintillation counting. Concentration response curves were generated for test compounds and the IC50 (molar concentration of the compound which produced 50% inhibition for the maximal response for that compound) was determined. These assays were performed using a protocol based on the original description of the assay by Joseph et al., (2004) Naun.-Sch. Arch. Pharm.; 369:525-532.
IC50 determinations for the compounds presented above are seen in the second column of Table 1 (Beta 2 IC50).

The target in assay [2] is T1, human recombinant beta-2 adrenoreceptors. The assay can be described thus: Functional agonism of human recombinant beta-2 adrenoreceptors expressed in CHO cells (cAMP HTRF). The following applies: CHO cells expressing human beta-2 adrenoreceptors, cAMP elevation, 30 min. The class given is cell-based. The method, then:
Functional Agonism of Human Recombinant Beta-2 Adrenoreceptors Expressed in Chinese Hamster Oocytes (CHO)
Test compounds were incubated for 30 min with CHO cells expressing the human recombinant beta-2 adrenoreceptors. Agonism of the receptor was measured by the elevation of intracellular cyclic-AMP over control levels detected using a homogeneous time resolved fluorescence (HTRF) format. Compounds were determined to be “full” or “partial” agonists based on the maximum level of cAMP accumulated compared to the control compound isoproterenol which is a full agonist in this assay system. Concentration response curves were generated for test compounds and the EC50 (molar concentration of the agonist which produced 50% of the maximal response for that compound) was determined. These assays were performed using a protocol based on the original description of the assay by Baker, J. G. (2005) Brit. J. Pharmacol.; 144:317-322.
EC50 determinations for the compounds presented above are seen in the third column of Table 1 (Beta 2 EC50).
In general terms: In TR-FRET formats the signal depends on donor and acceptor labels being close together.

Another assay concerns the target T2, Human recombinant PDE4B2 (Homo sapiens, UniProt Q07343).
T2 construct: purchased BPS Bioscience
Kind of assay: Inhibition of PDE4B4 enzyme activity (PDE Glo Assay). The class given is biochemical. The following applies: human recombinant PDE4B2, 50 nM cAMP; read-out: PDE4 IC50. The method, then: Biological Examples Inhibition of PDE4B4 Enzyme Activity
The inhibitory activity of test compounds were determined using the PDE Glo Assay (Promega, V1361). The PDE-Glo Reaction Buffer was prepared (1 mL 5× buffer+4 mL water) and 150 nM solution of test compound dissolved in the Reaction Buffer, followed by 1:3 serial dilutions into Reaction Buffer. […] Human recombinant PDE4B2 (BPS Bioscience) was added to test compound in Reaction Buffer at a concentration of 0.12 nM per reaction. The enzyme and test compound were pre-incubated together at rt for 10 min. 50 nM of the enzyme substrate cAMP was then added to initiate the enzyme reaction, with the reaction terminated after one hour. Termination Buffer (1 mL 5× termination buffer+3.9 mL water+100 μL of 100 mM IBMX (ICN Chemicals, in DMSO)), was added to each reaction well to terminate the reaction. Detection Buffer (1 mL 5×PDE-Glo Detection buffer+3.96 mL water+40 μL PKA (supplied in kit)) was added to the cAMP-enzyme-test compound mix and this secondary reaction proceeded for 20 minutes at rt. An equal volume of Kinase Glo Reagent was then added to the reaction mixture and after 10 min luminescence was measured using a luminometer (EnVision, 0.1 sec read for luminescence). Luminescence values were […] related to levels of cAMP in the reaction mixture. Data were plotted as relative light units (RLU) versus test compound concentration and the IC50 determined using GraphPad Prism 5.0, using a nonlinear curve fit in a single-site binding model.
IC50 determinations for the compounds presented above are seen in the first column of Table 1 (PDE4IC50).

Assay [3] concerns LPS-induced TNF-α release from human peripheral blood mononuclear cells (PBMC). The assay can be described thus: Inhibition of LPS-induced TNF-α release from human PBMC. Format: cell-based. The following applies: LPS 0.4 ng/mL, 6 h, presence or absence of ICI-118551 not given. The text has this: Inhibition of Lipopolysaccharide (LPS)-Induced Tumour Necrosis Factor Alpha (TNF-α) Release from Human Peripheral Blood Mononuclear Cells (PBMC)
Human whole blood was drawn from donors and cell purification initiated within two hours. Peripheral blood mononuclear cells (PBMC) were purified using a standard Ficoll gradient purification technique and aliquoted at a concentration of 100,000 cells/well in 96 well plates. Beta-2 adrenoreceptor agonists are also anti-inflammatory for some immune cells expressing the receptor and in this assay they can inhibit tumor necrosis factor-alpha (TNF-α) production. Therefore PBMC were pre-incubated for 30 min in the presence of the beta-2 adrenoreceptor antagonist ICI-118551 [3-(isopropylamino)-1-[(7-methyl-4-indanyl)oxy]butan-2-ol] (10 μM) to determine the PDE4 directed activity of test compounds, and in the absence of ICI-118551 for the combined PDE4 and beta-2 receptor directed activity. Test compounds were dissolved in DMSO and diluted in buffer (final DMSO concentration of 0.1% v/v) and were then added to the cell suspensions and pre-incubated for a further 1 h at 37° C. LPS solution was then added (0.4 ng/mL) and the cells incubated for a further 6 h. At the end of the incubation period the cell supernatants were collected and TNF-α was measured using a Procarta Cytokine Assay Kit (Affymetrix, Santa Clara, Calif.) according to the manufacturers' instructions. Data were analyzed using MiraiBio Masterplex QT v4.0 software (MasterPlex Version 1.0.1.18 Copyright 2008, Hitachi Software Engineering Co., Ltd) and used to extrapolate Mean Fluorescence Intensity (MFI) into concentrations of TNF-α and mean values from replicate wells were determined. Inhibition curves were plotted using a nonlinear curve fit employing a single-site binding model to determine the IC50 value for each test compound in the presence or absence of ICI-118551 using GraphPad Prism 5 for Windows, version 5.02 (GraphPad Software, San Diego Calif.).
EC50 determinations for the compounds presented above are seen in the fourth column of Table 1 (PBMC TNF EC50).

T2 sequence (Q07343 1-564 isoform Q07343-2): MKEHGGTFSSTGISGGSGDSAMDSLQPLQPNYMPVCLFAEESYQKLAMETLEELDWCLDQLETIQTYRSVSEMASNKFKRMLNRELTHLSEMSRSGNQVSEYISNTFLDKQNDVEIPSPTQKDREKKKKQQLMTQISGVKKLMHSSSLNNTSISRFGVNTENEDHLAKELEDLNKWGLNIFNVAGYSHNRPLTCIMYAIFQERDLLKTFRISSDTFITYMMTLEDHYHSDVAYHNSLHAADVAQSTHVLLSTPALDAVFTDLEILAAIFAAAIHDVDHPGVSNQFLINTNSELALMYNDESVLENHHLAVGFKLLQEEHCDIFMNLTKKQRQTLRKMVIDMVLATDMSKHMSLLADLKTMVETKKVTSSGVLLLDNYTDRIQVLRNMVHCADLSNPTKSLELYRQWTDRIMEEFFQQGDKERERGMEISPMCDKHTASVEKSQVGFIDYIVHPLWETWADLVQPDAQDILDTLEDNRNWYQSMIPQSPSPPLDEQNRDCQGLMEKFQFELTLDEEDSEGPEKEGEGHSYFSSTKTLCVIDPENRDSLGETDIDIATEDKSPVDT
T1 sequence (P07550 whole entry): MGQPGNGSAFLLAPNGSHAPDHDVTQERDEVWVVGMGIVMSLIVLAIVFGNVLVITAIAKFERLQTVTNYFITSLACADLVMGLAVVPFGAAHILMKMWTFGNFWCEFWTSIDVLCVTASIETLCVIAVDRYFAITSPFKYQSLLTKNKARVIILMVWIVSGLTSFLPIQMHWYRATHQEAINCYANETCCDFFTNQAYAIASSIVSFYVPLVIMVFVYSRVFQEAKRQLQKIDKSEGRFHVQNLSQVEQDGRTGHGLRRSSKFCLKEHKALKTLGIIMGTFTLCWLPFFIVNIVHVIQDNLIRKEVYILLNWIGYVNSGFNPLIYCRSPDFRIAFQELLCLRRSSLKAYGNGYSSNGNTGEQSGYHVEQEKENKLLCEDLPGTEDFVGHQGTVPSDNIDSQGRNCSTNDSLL

In the case of `COc1cccc(Nc2c(C(N)=O)cnc3c(C)cc(S(=O)(=O)c4cccc(C(=O)N5CCN(CCNC[C@H](O)c6ccc(O)c7[nH]c(=O)ccc67)CC5)c4)cc23)c1` [Example 11, 6-[3-[[4-[2-[[2-Hydroxy-2-(8-hydroxy-2-oxo-1,2-dihydroquinolin-5-yl)ethyl]amino]ethyl]piperazine-1-yl]carbonyl]benzenesulfonyl]-4-(3-methoxyphenylamino)-8-methylquinoline-3-carboxyamide], the IC50 (in assay [1]; at Human recombinant PDE4B2) was below 100 nM each time. Further, the EC50 in assay [2] and in assay [3] was below 100 nM throughout.
As for `COc1cccc(Nc2c(C(N)=O)cnc3c(C)cc(S(=O)(=O)c4cccc(C(=O)Nc5ccc(CCNC[C@H](O)c6ccc(O)c7[nH]c(=O)ccc67)cc5)c4)cc23)c1` [Example 12, (R)-6-[[3-[[4-[2-[[2-Hydroxy-2-(8-hydroxy-2-oxo-1,2-dihydroquinolin-5-yl)ethyl]amino]ethyl]phenyl]carbamoyl]phenyl]sulfonyl]-4-[(3-methoxyphenyl)amino]-8-methylquinoline-3-carboxamide], the IC50 (in assay [1]; at Human recombinant PDE4B2) was below 100 nM in each case. Moreover, the concentration giving a half-maximal response (EC50) in assay [2] and in assay [3] was below 100 nM each time.
On to `COc1cccc(Nc2c(C(N)=O)cnc3c(C)cc(S(=O)(=O)c4cccc(CN(C)C(=O)c5cccc(CC(C)NC[C@H](O)c6ccc(O)c7[nH]c(=O)ccc67)c5)c4)cc23)c1` (stereo partly drawn) [Example 13, 6-[[3-[[3-[2-[[(R)-2-Hydroxy-2-(8-hydroxy-2-oxo-1,2-dihydroquinolin-5-yl)ethyl]amino]propyl]-N-methylbenzamido]methyl]phenyl]sulfonyl]-4-[(3-methoxyphenyl)amino]-8-methylquinoline-3-carboxamide], for which the IC50 (in assay [1]; on Human recombinant PDE4B2) was below 100 nM each time. For the same molecule, the EC50 in assay [2] and in assay [3] was below 100 nM throughout.
On to `COc1cccc(Nc2c(C(N)=O)cnc3c(C)cc(S(=O)(=O)c4cccc(C(=O)N(C)CCCCCCNC[C@H](O)c5ccc(O)c6[nH]c(=O)ccc56)c4)cc23)c1` [Example 14], for which the IC50 is above 300 nM in assay [1] and below 100 nM on Human recombinant PDE4B2. For the same molecule, the EC50 in assay [2] was above 300 nM; in assay [3] it was below 100 nM.
Take `COc1cccc(Nc2c(C(N)=O)cnc3c(C)cc(S(=O)(=O)c4cccc(C(=O)N5CCC(OCCCCCCNC[C@H](O)c6ccc(O)c7[nH]c(=O)ccc67)CC5)c4)cc23)c1` [Example 15, (R)-6-((3-(4-((6-((2-hydroxy-2-(8-hydroxy-2-oxo-1,2-dihydroquinolin-5-yl)ethyl)amino)hexyl)oxy)piperidine-1-carbonyl)phenyl)sulfonyl)-4-((3-methoxyphenyl)amino)-8-methylquinoline-3-carboxamide]: the IC50 (in assay [1]; at Human recombinant PDE4B2) was below 100 nM throughout. Further, the EC50 in assay [2] and in assay [3] was below 100 nM throughout.
As to `COc1cccc(Nc2c(C(N)=O)cnc3c(C)cc(S(=O)(=O)c4cccc(C(=O)N5CCN(CCCCCCNC[C@H](O)c6ccc(O)c7[nH]c(=O)ccc67)CC5)c4)cc23)c1` [Example 16, (R)-6-((3-(4-(6-((2-hydroxy-2-(8-hydroxy-2-oxo-1,2-dihydroquinolin-5-yl)ethyl)amino)hexyl)piperazine-1-carbonyl)phenyl)sulfonyl)-4-((3-methoxyphenyl)amino)-8-methylquinoline-3-carboxamide], the IC50 in assay [1] was above 300 nM; on Human recombinant PDE4B2, below 100 nM. The figures for the EC50 in assay [2] and in assay [3] were below 300 nM and below 100 nM, respectively.
As to `COc1cccc(Nc2c(C(N)=O)cnc3c(C)cc(S(=O)(=O)c4cccc(C(=O)N5CCN(C(=O)c6cccc(CC(C)NC[C@H](O)c7ccc(O)c8[nH]c(=O)ccc78)c6)CC5)c4)cc23)c1` (stereo partly drawn) [Example 17, 6-((3-(4-(3-(2-(((R)-2-hydroxy-2-(8-hydroxy-2-oxo-1,2-dihydroquinolin-5-yl)ethyl)amino)propyl)benzoyl)piperazine-1-carbonyl)phenyl)sulfonyl)-4-((3-methoxyphenyl)amino)-8-methylquinoline-3-carboxamide], the IC50 (in assay [1]; on Human recombinant PDE4B2) was below 100 nM in each case. For the same molecule, the EC50 in assay [2] and in assay [3] was below 100 nM in each case.
`COc1cccc(Nc2c(C(N)=O)cnc3c(C)cc(S(=O)(=O)c4cccc(C(=O)N5CCN(C(=O)c6cccc(CC(C)(C)NC[C@H](O)c7ccc(O)c8[nH]c(=O)ccc78)c6)CC5)c4)cc23)c1` [Example 18, (R)-6-((3-(4-(3-(2-((2-hydroxy-2-(8-hydroxy-2-oxo-1,2-dihydroquinolin-5-yl)ethyl)amino)-2-methylpropyl)benzoyl)piperazine-1-carbonyl)phenyl)sulfonyl)-4-((3-methoxyphenyl)amino)-8-methylquinoline-3-carboxamide]: the IC50 (in assay [1]; on Human recombinant PDE4B2) was below 100 nM throughout. The EC50 in assay [2] and in assay [3] was below 100 nM in each case.
In the case of `COc1cccc(Nc2c(C(N)=O)cnc3c(C)cc(S(=O)(=O)c4cccc(CN(C)C(=O)c5cccc(CC(C)(C)NC[C@H](O)c6ccc(O)c7[nH]c(=O)ccc67)c5)c4)cc23)c1` [Example 19, (R)-6-((3-((3-(2-((2-hydroxy-2-(8-hydroxy-2-oxo-1,2-dihydroquinolin-5-yl)ethyl)amino)-2-methylpropyl)-N-methylbenzamido)methyl)phenyl)sulfonyl)-4-((3-methoxyphenyl)amino)-8-methylquinoline-3-carboxamide], the IC50 (in assay [1]; at Human recombinant PDE4B2) was below 100 nM each time. Further, the half-maximal effective concentration (EC50) in assay [2] and in assay [3] was below 100 nM in each case.
As for `COc1cccc(Nc2c(C(N)=O)cnc3c(C)cc(S(=O)(=O)c4cccc(C(=O)Nc5ccc(-c6ccc(CNC[C@H](O)c7ccc(O)c8[nH]c(=O)ccc78)cc6)cc5)c4)cc23)c1` [Example 20, (R)-6-((3-((4′-(((2-hydroxy-2-(8-hydroxy-2-oxo-1,2-dihydroquinolin-5-yl)ethyl)amino)methyl)-[1,1′-biphenyl]-4-yl)carbamoyl)phenyl)sulfonyl)-4-((3-methoxyphenyl)amino)-8-methylquinoline-3-carboxamide], the half-maximal inhibitory concentration (IC50) (in assay [1]; at Human recombinant PDE4B2) was below 100 nM each time. Also, the EC50 in assay [2] and in assay [3] was below 100 nM each time.
